Test results reported in US8541588B2, “Sulfonamide derivatives” (Pfizer Limited, priority 2009, dated 2013).

Biological target: T1, Nav1.7 (or SCN9A) channel; HEK cells stably transfected with hSCN9A (Homo sapiens, UniProt Q15858)
T1 construct: expressed in transfected cells
Assay: Nav1.7 block, PatchXpress 7000 automated whole-cell voltage clamp, estimated IC50 (EIC50)
Assay type: cell-based
Conditions: estimated IC50; hSCN9A HEK cells, PatchXpress platform; Examples 283-814

T1 sequence (Q15858 whole entry): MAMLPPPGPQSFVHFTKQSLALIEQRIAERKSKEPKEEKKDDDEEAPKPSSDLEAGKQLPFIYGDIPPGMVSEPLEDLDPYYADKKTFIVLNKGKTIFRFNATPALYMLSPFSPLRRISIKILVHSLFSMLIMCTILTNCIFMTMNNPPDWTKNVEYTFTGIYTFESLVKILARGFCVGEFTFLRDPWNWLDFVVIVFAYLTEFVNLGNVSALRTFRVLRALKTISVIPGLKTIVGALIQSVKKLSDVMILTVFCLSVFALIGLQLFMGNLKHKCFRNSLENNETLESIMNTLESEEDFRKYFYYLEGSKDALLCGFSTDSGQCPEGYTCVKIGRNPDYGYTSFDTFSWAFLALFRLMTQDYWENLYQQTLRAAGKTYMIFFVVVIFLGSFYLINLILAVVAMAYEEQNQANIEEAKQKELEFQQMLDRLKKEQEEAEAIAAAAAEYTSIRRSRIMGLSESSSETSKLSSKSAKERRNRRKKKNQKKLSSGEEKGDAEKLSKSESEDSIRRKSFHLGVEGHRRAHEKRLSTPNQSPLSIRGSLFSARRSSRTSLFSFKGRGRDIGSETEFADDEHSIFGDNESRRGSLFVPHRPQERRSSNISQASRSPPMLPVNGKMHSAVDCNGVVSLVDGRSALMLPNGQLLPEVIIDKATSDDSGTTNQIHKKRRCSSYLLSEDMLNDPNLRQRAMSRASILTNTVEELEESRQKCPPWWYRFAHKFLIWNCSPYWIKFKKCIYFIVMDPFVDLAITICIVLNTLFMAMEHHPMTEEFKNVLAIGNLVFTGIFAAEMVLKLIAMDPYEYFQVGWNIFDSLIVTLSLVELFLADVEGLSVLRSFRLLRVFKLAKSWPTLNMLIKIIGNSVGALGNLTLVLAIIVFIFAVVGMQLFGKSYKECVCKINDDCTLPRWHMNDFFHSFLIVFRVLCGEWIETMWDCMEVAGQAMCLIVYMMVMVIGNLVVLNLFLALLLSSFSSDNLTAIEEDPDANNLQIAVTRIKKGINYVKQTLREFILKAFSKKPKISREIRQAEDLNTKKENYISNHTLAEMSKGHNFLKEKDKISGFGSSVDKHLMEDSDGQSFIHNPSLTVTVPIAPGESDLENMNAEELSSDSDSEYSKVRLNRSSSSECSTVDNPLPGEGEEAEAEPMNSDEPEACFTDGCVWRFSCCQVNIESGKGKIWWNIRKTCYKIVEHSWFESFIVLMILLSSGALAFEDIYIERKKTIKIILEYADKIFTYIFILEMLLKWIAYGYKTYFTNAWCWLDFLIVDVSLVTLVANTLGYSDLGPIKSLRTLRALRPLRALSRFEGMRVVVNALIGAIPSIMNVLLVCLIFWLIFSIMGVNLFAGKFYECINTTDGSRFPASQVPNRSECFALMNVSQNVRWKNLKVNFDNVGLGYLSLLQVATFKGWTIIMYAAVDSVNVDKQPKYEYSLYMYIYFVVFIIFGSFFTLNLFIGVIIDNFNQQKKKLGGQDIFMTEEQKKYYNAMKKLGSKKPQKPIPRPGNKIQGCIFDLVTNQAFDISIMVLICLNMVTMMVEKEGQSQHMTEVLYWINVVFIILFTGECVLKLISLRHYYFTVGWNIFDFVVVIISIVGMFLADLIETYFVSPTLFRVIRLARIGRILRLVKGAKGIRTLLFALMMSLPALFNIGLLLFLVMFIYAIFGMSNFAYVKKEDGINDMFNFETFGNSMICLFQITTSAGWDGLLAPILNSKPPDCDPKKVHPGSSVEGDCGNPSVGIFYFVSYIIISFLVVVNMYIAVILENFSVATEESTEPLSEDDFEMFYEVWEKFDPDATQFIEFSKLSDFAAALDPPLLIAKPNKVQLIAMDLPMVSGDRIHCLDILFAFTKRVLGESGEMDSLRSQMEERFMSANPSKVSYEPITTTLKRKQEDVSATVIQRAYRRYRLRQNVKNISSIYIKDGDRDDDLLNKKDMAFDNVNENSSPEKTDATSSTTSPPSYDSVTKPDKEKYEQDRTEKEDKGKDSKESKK

Row | Compound | IC50 [nM]
1 | Cn1nc(C(F)(F)F)cc1-c1ccc(Oc2ccc(S(=O)(=O)Nc3ncc(F)s3)cc2C#N)cc1 [Example 387, 3-cyano-N-(5-fluoro-1,3-thiazol-2-yl)-4-{4-[1-methyl-3-(trifluoromethyl)-1H-pyrazol-5-yl]phenoxy}benzenesulfonamide] | 140
2 | CCn1nc(C)cc1-c1ccc(Oc2ccc(S(=O)(=O)Nc3nccs3)cc2C#N)cc1 [Example 388, 3-cyano-4-[4-(1-ethyl-3-methyl-1H-pyrazol-5-yl)phenoxy]-N-1,3-thiazol-2-ylbenzenesulfonamide] | 740
3 | Cc1nn(C)cc1-c1ccc(Oc2ccc(S(=O)(=O)Nc3nccs3)cc2C#N)cc1 [Example 389, 3-cyano-4-[4-(1,3-dimethyl-1H-pyrazol-4-yl)phenoxy]-N-1,3-thiazol-2-ylbenzenesulfonamide] | 1100
4 | N#Cc1cc(S(=O)(=O)Nc2nccs2)ccc1Oc1cccc(-n2nc(C(F)F)cc2CO)c1 [Example 390, 3-cyano-4-{3-[3-(difluoromethyl)-5-(hydroxymethyl)-1H-pyrazol-1-yl]phenoxy}-N-1,3-thiazol-2-ylbenzenesulfonamide] | 300
5 | N#Cc1cc(S(=O)(=O)Nc2nccs2)ccc1Oc1ccc(I)cc1-c1ccn[nH]1 [Example 391, 3-cyano-4-[4-iodo-2-(1H-pyrazol-5-yl)phenoxy]-N-1,3-thiazol-2-ylbenzenesulfonamide] | 2.5
6 | N#Cc1cc(S(=O)(=O)Nc2cscn2)ccc1Oc1ccc(Cl)cc1-c1ccnc(N)c1 [Example 392, 4-[2-(2-aminopyridin-4-yl)-4-chlorophenoxy]-3-cyano-N-1,3-thiazol-4-ylbenzenesulfonamide] | 140
7 | N#Cc1cc(S(=O)(=O)Nc2cscn2)ccc1Oc1ccc(Cl)cc1-c1cn[nH]c1N [Example 393, 4-[2-(5-amino-1H-pyrazol-4-yl)-4-chlorophenoxy]-3-cyano-N-1,3-thiazol-4-ylbenzenesulfonamide] | 990
8 | N#Cc1cc(S(=O)(=O)Nc2cscn2)ccc1Oc1ccc(Cl)cc1-c1cnn(C(F)F)c1 [Example 394, 4-{4-chloro-2-[1-(difluoromethyl)-1H-pyrazol-4-yl]phenoxy}-3-cyano-N-1,3-thiazol-4-ylbenzenesulfonamide] | 2900
9 | Cn1nc(C(F)(F)F)cc1-c1cc(Cl)ccc1Oc1ccc(S(=O)(=O)Nc2cscn2)cc1C#N [Example 395, 4-{4-chloro-2-[1-methyl-3-(trifluoromethyl)-1H-pyrazol-5-yl]phenoxy}-3-cyano-N-1,3-thiazol-4-ylbenzenesulfonamide] | 1800
10 | CC(C)Oc1cc(-c2cc(F)ccc2Oc2ccc(S(=O)(=O)Nc3cscn3)cc2C#N)n(C)n1 [Example 396, 3-cyano-4-[4-fluoro-2-(3-isopropoxy-1-methyl-1H-pyrazol-5-yl)phenoxy]-N-1,3-thiazol-4-ylbenzenesulfonamide] | >3000
11 | N#Cc1cc(S(=O)(=O)Nc2cscn2)ccc1Oc1ccc(Cl)cc1-n1cnc(C(F)(F)F)c1 [Example 397, 4-{4-chloro-2-[4-(trifluoromethyl)-1H-imidazol-1-yl]phenoxy}-3-cyano-N-1,3-thiazol-4-ylbenzenesulfonamide] | >1000
12 | N#Cc1cc(S(=O)(=O)Nc2cscn2)ccc1Oc1ccc(Cl)cc1-c1ccn(C(F)(F)F)n1 [Example 398, 4-{4-chloro-2-[1-(trifluoromethyl)-1H-pyrazol-3-yl]phenoxy}-3-cyano-N-1,3-thiazol-4-ylbenzenesulfonamide] | >1000
13 | N#Cc1cc(S(=O)(=O)Nc2cscn2)ccc1Oc1ccc(Cl)cc1-c1ccnn1C(F)(F)F [Example 399, 4-{4-chloro-2-[1-(trifluoromethyl)-1H-pyrazol-5-yl]phenoxy}-3-cyano-N-1,3-thiazol-4-ylbenzenesulfonamide] | 1200
14 | Cn1nccc1-c1ccccc1Oc1ccc(S(=O)(=O)Nc2cscn2)cc1C#N [Example 400, 3-cyano-4-[2-(1-methyl-1H-pyrazol-5-yl)phenoxy]-N-1,3-thiazol-4-ylbenzenesulfonamide] | 1200
15 | CCn1nc(C(F)(F)F)cc1-c1ccc(Oc2ccc(S(=O)(=O)Nc3cscn3)cc2C#N)cc1 [Example 401, 3-cyano-4-{4-[1-ethyl-3-(trifluoromethyl)-1H-pyrazol-5-yl]phenoxy}-N-1,3-thiazol-4-ylbenzenesulfonamide] | 2700
16 | N#Cc1cc(S(=O)(=O)Nc2cscn2)ccc1Oc1ccc(Cl)cc1-c1ccnn1C(F)F [Example 402, 4-{4-chloro-2-[1-(difluoromethyl)-1H-pyrazol-5-yl]phenoxy}-3-cyano-N-1,3-thiazol-4-ylbenzenesulfonamide] | 250
17 | Nc1cccc(-c2cc(Cl)ccc2Oc2cc(F)c(S(=O)(=O)Nc3ncns3)cc2Cl)n1 [Example 403, 4-[2-(6-aminopyridin-2-yl)-4-chlorophenoxy]-5-chloro-2-fluoro-N-1,2,4-thiadiazol-5-ylbenzenesulfonamide] | 4.5
18 | CCn1nc(C(F)(F)F)cc1-c1ccc(Oc2cc(F)c(S(=O)(=O)Nc3ccc(F)cn3)cc2Cl)cc1 [Example 404, 5-chloro-4-{4-[1-ethyl-3-(trifluoromethyl)-1H-pyrazol-5-yl]phenoxy}-2-fluoro-N-(5-fluoropyridin-2-yl)benzenesulfonamide] | 1200
19 | Nc1cc(-c2cc(F)ccc2Oc2cc(F)c(S(=O)(=O)Nc3ncns3)cc2Cl)ccn1 [Example 405, 4-[2-(2-aminopyridin-4-yl)-4-fluorophenoxy]-5-chloro-2-fluoro-N-1,2,4-thiadiazol-5-ylbenzenesulfonamide] | 2.7
20 | Cn1ncnc1-c1cc(Cl)ccc1Oc1ccc(S(=O)(=O)Nc2nccs2)cc1F [Example 406, 4-[4-chloro-2-(1-methyl-1H-1,2,4-triazol-5-yl)phenoxy]-3-fluoro-N-1,3-thiazol-2-ylbenzenesulfonamide] | 3000
21 | Nc1cccc(-c2cc(F)ccc2Oc2cc(F)c(S(=O)(=O)Nc3ncns3)cc2F)n1 [Example 407, 4-[2-(6-aminopyridin-2-yl)-4-fluorophenoxy]-2,5-difluoro-N-1,2,4-thiadiazol-5-ylbenzenesulfonamide] | 190
22 | CCn1nc(C(F)(F)F)cc1-c1ccc(Oc2ccc(S(=O)(=O)Nc3nccs3)cc2F)cc1 [Example 408, 4-{4-[1-ethyl-3-(trifluoromethyl)-1H-pyrazol-5-yl]phenoxy}-3-fluoro-N-1,3-thiazol-2-ylbenzenesulfonamide] | 300
23 | Nc1cccc(-c2cc(Cl)ccc2Oc2cc(F)c(S(=O)(=O)Nc3ncns3)cc2F)n1 [Example 409, 4-[2-(6-aminopyridin-2-yl)-4-chlorophenoxy]-2,5-difluoro-N-1,2,4-thiadiazol-5-ylbenzenesulfonamide] | 19
24 | Nc1ccc(-c2cc(Cl)ccc2Oc2cc(F)c(S(=O)(=O)Nc3ncns3)cc2F)cn1 [Example 410, 4-[2-(6-aminopyridin-3-yl)-4-chlorophenoxy]-2,5-difluoro-N-1,2,4-thiadiazol-5-ylbenzenesulfonamide] | 29
25 | Nc1ccc(-c2cc(Cl)ccc2Oc2cc(F)c(S(=O)(=O)Nc3ncns3)cc2F)nc1 [Example 411, 4-[2-(5-aminopyridin-2-yl)-4-chlorophenoxy]-2,5-difluoro-N-1,2,4-thiadiazol-5-ylbenzenesulfonamide] | 540
